Experimental data: paper PMC12648460, “Substitution of CH3 by CH2F in 2‐Methylerythritol Cyclodiphosphate Triggers Potent Inhibition of IspG with Concomitant Fluoride Ion Expulsion” (Chemistry (Weinheim an Der Bergstrasse, Germany), 2025)

Key:
Format in all cases: biochemical
IspG (GcpE) [1] = biological target: T1, IspG (GcpE) (Escherichia coli, UniProt P62620); assay: anaerobic NADPH consumption assay, preincubation with reduction system
T1 construct: active dimeric form

IspG (GcpE) [2] = biological target: T1, IspG (GcpE); assay: anaerobic NADPH consumption assay of purified IspG with […] MEcPP
IspG (GcpE) [3] = biological target: T1, IspG (GcpE); assay: anaerobic NADPH consumption assay ([…] nm), […] min preincubation with reduction system; […]-NMR of fluoride release

T1 sequence (P61949 2-176): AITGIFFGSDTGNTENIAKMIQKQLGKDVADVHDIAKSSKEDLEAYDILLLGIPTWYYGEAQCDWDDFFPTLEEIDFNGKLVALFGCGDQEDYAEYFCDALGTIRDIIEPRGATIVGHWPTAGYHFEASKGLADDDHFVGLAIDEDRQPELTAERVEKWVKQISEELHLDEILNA
T1 sequence (P28861 2-248, further chain): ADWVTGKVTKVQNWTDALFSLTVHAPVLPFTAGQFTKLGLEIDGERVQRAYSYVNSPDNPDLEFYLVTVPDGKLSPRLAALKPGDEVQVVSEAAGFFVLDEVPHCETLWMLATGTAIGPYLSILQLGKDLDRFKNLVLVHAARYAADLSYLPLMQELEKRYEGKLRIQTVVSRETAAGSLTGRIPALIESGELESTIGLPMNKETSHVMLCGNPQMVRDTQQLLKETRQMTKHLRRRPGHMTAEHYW
T1 sequence (P62620 whole entry): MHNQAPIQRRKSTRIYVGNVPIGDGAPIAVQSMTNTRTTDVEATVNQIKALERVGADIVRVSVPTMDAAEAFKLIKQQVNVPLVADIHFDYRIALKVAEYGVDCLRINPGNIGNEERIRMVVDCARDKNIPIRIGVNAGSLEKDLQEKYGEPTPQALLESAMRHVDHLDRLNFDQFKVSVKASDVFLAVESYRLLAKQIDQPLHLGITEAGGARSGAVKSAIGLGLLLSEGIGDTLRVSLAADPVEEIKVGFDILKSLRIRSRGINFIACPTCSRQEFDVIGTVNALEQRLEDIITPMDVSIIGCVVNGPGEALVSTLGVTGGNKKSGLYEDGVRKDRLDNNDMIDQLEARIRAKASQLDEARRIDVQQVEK

C=C[C@@]1(CO)OP(=O)(O)OP(=O)(O)OC[C@H]1O [VEcPP, 2-C-vinyl-D-erythritol cyclodiphosphate]
IC50 (IspG (GcpE) [1]): 19.5 ± 1.3 µM

C[C@@]1(CO)OP(=O)(O)OP(=O)(O)OC[C@H]1O [compound 1, 2-C-methyl-D-erythritol 2,4-cyclodiphosphate]
anaerobic NADPH consumption assay of purified IspG with 250 μM MEcPP (IspG (GcpE) [2]): ~ 200 nmol min−1 mg−1

O=P1(O)OC[C@@H](O)[C@@](CO)(CF)OP(=O)(O)O1 [compound 8, monofluoromethyl-D-erythritol cyclodiphosphate]
IC50 (IspG (GcpE) [3]): 10.4 ± 1 µM
